{
  "source": "patent US5852004A",
  "about": "“Drug and pharmaceutical composition for the treatment of lesions of the digestive tract” (Societe Valbiofrance, priority 1994, dated 1998)",
  "molecules": {"B1": {"name": "STBI: trypsin inhibitor originating from soya, from Sigma (protein, UniProt P01070 25-205, looked up)", "Trypsin inhibitor A": "DFVLDNEGNPLENGGTYYILSDITAFGGIRAAPTGNERCPLTVVQSRNELDKGIGTIISSPYRIRFIAEGHPLSLKFDSFAVIMLCVGIPTEWSVVEDLPEGPAVKIGENKDAMDGWFRLERVSDDEFNNYKLVFCPQQAEDDKCGDIGISIDHDDGTRRLVVSKNKPLVVQFQKLDKESL"}},
  "key": {"[1]": {"tested_on": "anastomosis of the rectocolic junction", "experimental": "Male Wistar rats (Wi/Wi, Ico, Iffa Credo France), weighing 250 to 300 g are anesthetized with sodic pentobarbital. A subumbilical midline laparotomy is performed over 1.5 cm. The rectocolic junction is individualized and then sectioned with bistoury. […] The anastomosis is carried out according to a termino-terminal mode in a plane by five separate stitches of polyglactine 910 thread, diameter 6/0. The knots are made of 6 loops. Parietal closure is performed in two planes. The rats are divided into two groups of 7 rats. The experiments are conducted in double blind. Samples are taken on the 2nd, 4th and 7th days after the operation. The quality of the healing is studied by measuring the rupture pressure of the anastomosis, in millimeters of mercury. The colon is sectioned 2 cm on either side of the anastomosis, one end being connected to a self-pushing syringe which injects water at a low, constant rate, and the other end being linked to a manometer. Pressure is recorded continuously on a reel of paper. The rupture pressure is determined by analyzing the tracing."}, "trypsin": {"tested_on": "trypsin", "assay": "enzymatic activity of trypsin on substrate S87", "description": "The enzymatic activity of trypsin was measured by spectrophotometric absorption of the transformation product of S 87 versus incubation time."}, "[2]": {"tested_on": "colitis induced by acetic acid", "assay": "colitis induced by acetic acid", "format": "in vivo, Sprague Dawley male rats", "conditions": "for Alteration score: per os twice a day for three days, score 72 hours after acetic acid, mean ± standard error", "experimental": "Groups of 6 Sprague Dawley male rats weighing approximately 200 g are placed in hydric fasting 24 hours before the test. On the day of the test, the animals are anesthetized with pentobarbital (30 mg/kg) by intraperitoneal route. After laparotomy, a colic instillation of 2 ml of 5% acetic acid is performed 2 cm from the caecum. The acetic acid is left in contact for 10 seconds and the colon is then rinsed by 3 ml of saline phosphate buffer (PBS) at pH 7. The wound is then closed. The animals are sacrificed 72 hours later by cervical elongation. The colic alterations are noted on the following scale:\n2: superficial necrosis of the mucosa\n4: major necrosis of the mucosa with edema\nA third group receives sucralfate (marketed under the name of ULCAR Pharmaceutical Laboratories Fabre). The supplier's recommended dose is used (500 mg/kg, i.e. 100 mg per rat) administered orally twice a day for three days.\nThe mean and the standard error were calculated for each batch of animals. Statistical comparison is performed using White's non parametric test compared to the control."}, "complement system": {"tested_on": "complement system", "conditions": "according to Mauzac et al."}, "beta TGF": {"target": "T1, beta TGF (Homo sapiens, UniProt P01137)", "T1 construct": "from tissue; host or cells: human blood platelets", "T1 sequence (P01137 279-390 limits assumed)": "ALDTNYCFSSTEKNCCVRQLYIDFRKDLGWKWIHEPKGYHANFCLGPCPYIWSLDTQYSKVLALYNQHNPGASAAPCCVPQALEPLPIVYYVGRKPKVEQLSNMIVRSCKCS", "assay": "protection of beta TGF against trypsin, read by inhibition of tritiated thymidine incorporation in CCL64 cells", "format": "cell-based", "conditions": "37° C. 10 min", "experimental": "In order to measure the capacity of certain CMDBSs to interact with members of the beta TGF family and, by means of this interaction, to protect the beta TGFS, a grading test was devised.\nThe beta 1 TFG is prepared from human blood platelets according to a protocol described in numerous publications (for example Growth factors and their receptors, 1992, vol 1 pp 419-472, written by A. Roberts and M. Sporn, edited by A. Roberts and M. Sporn, and published by Springer Verlag Berlin) and is commonly used by persons of ordinary skill in the art. The beta TGF biological activity test used in this example is that of the inhibition of CCL64 cells (from the American Tissue Culture Collection). This inhibition is measured by the ability of the beta TGF to inhibit the incorporation of tritiated thymidine in a dose dependent manner in these CCL64 cells stimulated by the FGF or by fetal calf serum according to the protocol described by Van Zolen in Progress in Growth Factor Research, 1990, 2, pp 131 to 152. Two doses of beta TGF are used, one corresponding to the 50% inhibition capacity of the incorporation of tritiated thymidine (defined as the inhibiting activity unit) and the other corresponding to the 100% inhibition capacity.\nThe final volume of the incubated solution is adjusted to 1 ml and incubation is carried out at 37° C. for a varying length of time (10 minutes in the example described (Table 1)).\n20 μl samples […] are taken from each of the incubation reactions and added to CCL64 cells cultivated in 24-well plates, each well containing one milliliter of culture medium according to the aforementioned protocol described by E. Zohlen. In these conditions, the final concentration of beta TGF per well is 1 ng/ml.\nThe incubation mixture contained 50 ng of beta TGF (in 0.1% bovine serum albumin) and trypsin (500 μg). Mesoglycan or sulodexide or dextran sulfate or dextran or sucrase are used at the dose of 5000 μg.\nThe beta TGF biological activity is measured as described above after a dilution of 50 times and by using CCL64 cells."}, "FGF 2": {"tested_on": "FGF 2", "assay": "potentialization of FGF2 biological activity, tritiated thymidine incorporation in CCL39 cells", "format": "cell-based", "excerpt": "(§1) The cells used in this example are CCL39 cells from the American Tissue Culture Collection. The conditions concerning culture and the measurement test of FGF biological activity are the same as those described in the publication by Tardieu and coll. in the Journal of Cellular Physiology, 1992. The FGF growth factors used are the FGF 1 and FGF 2 recombinant forms.\n(§2) In these experiments, the FGF 1 or 2 is used at a dose corresponding to the effective dose (indicated ED50) in order to induce a stimulation of the biological activity of 50% of the dose inducing the maximum stimulation. The biological activity is measured by the ability to induce an increase of the incorporation of tritiated thymidine in the cells according to protocols extensively described in numerous publications such as the previously mentioned publication by Tardieu et coll. and also in French Patent 2 644 066.\n(§3) In addition to this ability to potentialize the biological activity of the FGFs, the HBGFPPs protect the FGFs against thermal degradations and the inactivation induced by the proteolytic action of trypsin (FIGS. 4 and 5). Similarly, these HBGFPPs protect FGF1 and 2 against an inactivation induced by the proteolytic activity of trypsin (FIGS. 5A and 5B)."}, "125I-FGF2": {"tested_on": "125I-FGF2", "assay": "protection of 125I-FGF2 against proteolytic degradation by trypsin (gel, autoradiography)", "format": "biochemical", "conditions": "FIG. 5B, 37° C.", "excerpt": "The arrangement of the tracks is identical to that presented for the ^125 I-FGF1 in FIG. 5A."}, "FGF2": {"tested_on": "FGF2", "assay": "protection of FGF2 against thermal degradation", "format": "cell-based", "conditions": "FIG. 4; 20° C. and 37° C., 1, 7, 15, 30 days", "experimental": "(§4) (a) and 37° C. (b) for 1, 7, 15, 30 days. The measurement of the biological activity presented in abscissa corresponds to the stimulation unit values (ED50) of the incorporation of tritiated thymidine in CCL39 cells."}, "FGF [3]": {"tested_on": "FGF", "assay": "semi-quantitative evaluation of FGF protection against trypsin (densitometry of radio-labelled FGF)", "format": "biochemical", "conditions": "FGF + trypsin + polymer; radio-labelled FGF found vs quantity deposited", "experimental": "As described above, a constant quantity of radioactive FGF is incubated under various conditions. After autoradiography of the reaction products, the non degraded quantity of radioactive FGF is quantified by densitometry. The values correspond to the percentage of radio-labelled FGF found compared to the quantity deposited at the start of reaction (Table 5)."}, "FGF 1": {"tested_on": "FGF 1", "assay": "potentialization of FGF1 biological activity, tritiated thymidine incorporation in CCL39 cells", "format": "cell-based", "excerpt": "as §1, §2, §3"}, "125I-FGF1": {"tested_on": "125I-FGF1", "assay": "protection of 125I-FGF1 against proteolytic degradation by trypsin (gel, autoradiography)", "format": "biochemical", "conditions": "FIG. 5A, 37° C.", "experimental": "Proteolytic digestion was carried out at 37° C. and the samples were separated by 18% polyacrylamide gel electrophoresis. The gels are dried and autoradiographed. The first track contains the 125I-FGF1 on its own."}, "FGF [4]": {"tested_on": "FGF", "conditions": "Tardieu et al. 1992; cited from earlier work"}, "FGF1": {"tested_on": "FGF1", "assay": "protection of FGF1 against thermal degradation", "format": "cell-based", "conditions": "FIG. 3; 20° C. and 37° C., 1, 7, 15, 30 days", "experimental": "as §4"}, "[5]": {"conditions": "beta TGF 50 ng + polymer 5000 μg + trypsin 500 μg"}, "[6]": {"conditions": "beta TGF 50 ng + polymer 5000 μg, no trypsin"}, "[7]": {"conditions": "10 μg/ml of sulodexide or 20 μg/ml of heparin, CCL39 cells"}},
  "note": "Where two headings read alike, the source gives them in different places.",
  "data": [
    {"molecule": "carboxymethyl dextran benzylamide sulfonate [CMDBS]", "values": [
      {"measurement": "Rupture pressure, mean", "setting": "[1]; DAY 2", "value": "67.28 mm of Hg"},
      {"measurement": "Rupture pressure, mean", "setting": "[1]; DAY 4", "value": "144.8 mm of Hg"},
      {"measurement": "increased resistance vs untreated", "setting": "[1]; Day 4", "value": "about 10%"},
      {"measurement": "difference between treated and untreated resistances", "setting": "[1]; Day 7", "value": "no longer any difference"},
      {"measurement": "inhibiting power on the activity of trypsin", "setting": "trypsin", "value": "no inhibiting power"},
      {"measurement": "trypsin activity on S87", "setting": "trypsin; trypsin 10 ug/ml + S87 + 5 μg/ml CMDBS", "value": 100},
      {"measurement": "trypsin activity on S87", "setting": "trypsin; trypsin + S87 + 50 μg/ml CMDBS", "value": 100},
      {"measurement": "trypsin activity on S87", "setting": "trypsin; trypsin + S87 + 500 μg/ml CMDBS", "value": 100},
      {"measurement": "Alteration score", "setting": "[2]", "value": "0.70 ± 0.37"},
      {"measurement": "reduction of the seriousness of the colic lesions", "setting": "[2]; p≤0.05", "value": "about 75%"},
      {"measurement": "anticomplement activity, CH50", "setting": "complement system", "value": 1.1, "unit": "µg"},
      {"measurement": "% inhibiting activity of the incorporation of tritiated thymidine in CCL64 cells", "setting": "beta TGF; [5]", "value": 75, "unit": "%"},
      {"measurement": "% inhibiting activity of the incorporation of tritiated thymidine in CCL64 cells", "setting": "beta TGF; [6]", "value": 100, "unit": "%"}
    ]},
    {"molecule": "heparin", "values": [
      {"measurement": "ED50 of FGF 2 in the presence of polymer", "setting": "FGF 2; [7]", "value": 0.2, "unit": "ng/mL"},
      {"measurement": "potentialization of the biological activity of FGF2", "setting": "FGF 2; FIG. 2B, 20 μg heparin, 10 μg mesoglycan or 10 μg sulodexide", "value": "potentialization"},
      {"measurement": "protective effect against proteolytic degradation of 125I-FGF2", "setting": "125I-FGF2", "value": "protective effect"},
      {"measurement": "protective effect against thermal degradation of FGF2", "setting": "FGF2", "value": "protective effect"},
      {"measurement": "PROTECTION (in %) of the FGF", "setting": "FGF [3]", "value": 100, "unit": "%"},
      {"measurement": "ED50 of FGF 1 in the presence of polymer", "setting": "FGF 1; [7]", "value": 0.4, "unit": "ng/mL"},
      {"measurement": "potentialization of the biological activity of FGF1", "setting": "FGF 1; FIG. 2A, 20 μg heparin, 10 μg mesoglycan or 10 μg sulodexide", "value": "potentialization"},
      {"measurement": "protective effect against proteolytic degradation of 125I-FGF1", "setting": "125I-FGF1", "value": "protective effect"},
      {"measurement": "protection of FGFs against proteolysis induced by trypsin", "setting": "FGF [4]", "value": "provides protection against proteolysis induced by trypsin"},
      {"measurement": "protective effect against thermal degradation of FGF1", "setting": "FGF1", "value": "protective effect"},
      {"measurement": "% inhibiting activity of the incorporation of tritiated thymidine in CCL64 cells", "setting": "beta TGF; [5]", "value": 10, "unit": "%"},
      {"measurement": "% inhibiting activity of the incorporation of tritiated thymidine in CCL64 cells", "setting": "beta TGF; [6]", "value": 100, "unit": "%"}
    ]},
    {"molecule": "sucralfate [reference compound]", "values": [
      {"measurement": "Alteration score", "setting": "[2]", "value": "2.25 ± 0.48"},
      {"measurement": "effect on the healing of the ulcers", "setting": "[2]; rat, in vivo", "value": "no significant effect"}
    ]},
    {"molecule": "B1", "values": [
      {"measurement": "trypsin activity on S87", "setting": "trypsin; trypsin + S87 + trypsin inhibitor", "value": 0}
    ]}
  ]
}
